Measured values as given in PMC9323733, “Efficacy of Vafidemstat in Experimental Autoimmune Encephalomyelitis Highlights the KDM1A/RCOR1/HDAC Epigenetic Axis in Multiple Sclerosis” (Pharmaceutics, 2022).

Experiments:
Type in all cases: in vivo, mouse
[1] = system: spleen and lymph nodes of EAE mice; experiment: EAE, cell number in spleen and lymph nodes, flow cytometry of CD4 T cells; details: ORY-2001 0.5 mg/kg; for CD4+ T cell population of the lymph nodes / cellularity in lymph nodes / number of effector T cells in lymph nodes: FTY720 1.0 mg/kg
Excerpt: (§1) For mechanistic studies in the EAE model, animals were divided into two groups, and samples were collected on day 26 post-immunization (sub-chronic phase), 3 days after the last dose, or on day 17 post-immunization for evaluating the effector phase. For this, mice were euthanized by intracardiac perfusion with saline (0.9%NaCl in H2O MilliQ) after pentobarbital anesthesia (Doletal), and blood samples, spleen, draining lymph nodes (DLNs: cervical, inguinal and axillary), brain, and spinal cord were removed. Serum samples were used for autoantibodies determination. Single-cell suspensions were obtained from spleen or pooled DLNs and used for the determination of cell number and auto-reactive and inflammatory responses, as described later. Brain and spinal segments of the cervical and lumbar regions were prepared separately and processed for RNA isolation, protein extraction, and histopathological analysis. Proteins were extracted from cervical and lumbar segments of spinal cord and brain from EAE mice via homogenization (50 mg tissue/mL) in lysis buffer (50 mM Tris-HCl, pH 7.4, 0.5 mM DTT, and 10 µg/mL proteinase inhibitors PMSF, pepstatin, and leupeptin). Samples were centrifuged (20.000× g, 15 min, 4 °C), and the supernatants were assayed for protein concentration (using Bradford method) and for cytokine/chemokine contents by using specific sandwich ELISAs according to manufacturer’s recommendations (BD Bioscience, Heidelberg, Germany and Peprotech, London, UK). In the TMEV model on day 86 after infection, mice were anesthetized and perfused transcardially, as described above. Spinal cords were obtained via extrusion with saline and prepared for further study.
For the identification of naïve, memory, and effector T cells, lymph nodes were isolated from different EAE groups at the peak of the disease. Cells were collected and distributed into polystyrene tubes for flow cytometry at 0.5 × 10^6 cells/tube and washed twice with washing buffer (10% FBS, 1% sodium azide in PBS; 300 g 5 min 4 °C). Before specific staining, cells were blocked with mouse BD Fc block to avoid nonspecific binding to Fc- receptors and marked with 7-AAD (7-amino-actinomycin D, Calbiochem, San Diego, CA, USA) to distinguish dead cells. Then, cells were incubated with PerCP/Cy5.5 conjugated anti-CD4, APC conjugated anti- CD62L (2 µg/mL), and PE conjugated anti-CD44 mAbs (0.5 µg/mL), following manufacturer’s recommendations (BioLegend) (Supplementary Materials Table S4). Briefly, after washing, cells were stained for 30 min at 4 °C, washed again, and analyzed in a FACSCalibur flow cytometer (BD Pharmingen, Le Pont-de-Claix, France). We used isotype-matched antibodies as controls.

spleen cells of EAE mice = experiment: EAE, autoreactive response of spleen cells from treated mice (proliferation, cytokines/chemokines); details: ORY-2001 0.5 mg/kg; for IFNγ and IL-4 in Con A-stimulated spleen cells: FTY720 1.0 mg/kg
Description: Spleen and draining lymph node (DLN) cells (10^6/mL) collected from EAE mice were stimulated in complete medium (RPMI 1640 containing 10% FBS, 50 µM 2-ME, 2 mM L-glutamine, 100 U/mL penicillin, and 100 µg/mL streptomycin) with 15 µM MOG35–55. After 48 h, cytokine (IL-4, TNF-alpha, IFN-gamma) and chemokine (IP-10 and MCP1) contents in culture supernatants were determined by sandwich ELISAs using capture/biotinylated detection Abs according to the manufacturer’s recommendations. The antibodies used are indicated in Supplementary Materials Table S4. Cell proliferation was evaluated after 72 h by adding 2.5 µCi/mL tritiated-thymidine during the last 8 h of culture and determining cpm incorporation in a Microbeta counter. We used T cell activation with an anti-CD3 […] antibody (1 µg/mL) or ConA (2.5 µg/mL) as controls of unspecific polyclonal stimulation.

spinal cord of EAE mice = experiment: EAE, inflammatory mediators in spinal cord protein extracts (ELISA); details: ORY-2001 0.5 mg/kg; for IFNγ and IP-10 levels in spinal cord / IL-1β levels in spinal cord: disease peak, FTY720 1.0 mg/kg
Excerpt: as §1

SMILES | CD4+ T cell population of the lymph nodes ([1]; day 17) | cellularity in lymph nodes ([1]; day 17) | number of effector T cells in lymph nodes ([1]; day 17) | IFNγ and IL-4 in Con A-stimulated spleen cells (spleen cells of EAE mice; day 17) | IFNγ and IP-10 levels in spinal cord (spinal cord of EAE mice) | IL-1β levels in spinal cord (spinal cord of EAE mice) | cellularity in spleen ([1]; day 17) | number of immune cells in spleen and lymph nodes ([1]; day 26, ORY-LSD1 180 µg/kg) | IP-10 and MCP-1 production induced by MOG35–55 (spleen cells of EAE mice; day 17) | MOG35–55-induced proliferation of spleen cells (spleen cells of EAE mice; day 17) | TNF-alpha and MCP-1 levels, MOG35–55-specific recall response (spleen cells of EAE mice; day 26) | IFNγ, IL-17 and IP-10 levels, MOG35–55-specific recall response (spleen cells of EAE mice; day 26, ORY-LSD1 180 µg/kg) | IL-4 production by spleen cells (spleen cells of EAE mice; day 26, ORY-LSD1 180 µg/kg) | MOG35–55- and anti-CD3-stimulated proliferation of spleen lymphocytes (spleen cells of EAE mice; day 26, ORY-LSD1 180 µg/kg) | IFNγ, IL-17 and IP-10 levels in spinal cord (spinal cord of EAE mice; day 26, ORY-LSD1 180 µg/kg) | IL-4 levels in spinal cord (spinal cord of EAE mice; day 26, ORY-LSD1 180 µg/kg)
CCCCCCCCc1ccc(CCC(N)(CO)CO)cc1 [FTY720, Fingolimod, reference compound] | increased the CD^4+ T cell population of the lymph nodes | increased the cellularity in lymph nodes | significantly increased | reduced the levels of IFNγ and increased IL-4 release | this decrease did not reach significance | showed the same tendency | – | – | – | – | – | – | – | – | – | –
Nc1nnc(CN[C@@H]2C[C@H]2c2ccc(OCc3ccccc3)cc2)o1 [ORY-2001] | increased the CD^4+ T cell population of the lymph nodes | increased the cellularity in lymph nodes | significantly increased | neither affected such cytokines (at the time of study) nor TNF-alpha | this decrease did not reach significance | significantly reduced the exacerbated levels of IL-1β | increased it significantly in the spleen | significant increase in the number of immune cells | significant increase in the production of the pro-inflammatory chemokines IP-10 and MCP-1 | significantly reduced the MOG35–55-induced proliferation of spleen cells | significantly reduced the levels of TNF-alpha and MCP-1 | produced equivalent levels of IFNγ, IL-17, and IP-10 | increased with both treatments | reduced MOG35–55 but not anti-CD3 -stimulated proliferation | no significant changes | significant increase in the levels of IL-4
